Assay results taken from paper PMC7233170 (Bioorganic chemistry, 2020).
Like-named read-outs stand apart in the source and are kept apart here.

Key:
[1] = target: T1, sEH (Homo sapiens, UniProt P34913); assay: sEH inhibitory activity; settings: for Inhibition of compounds against sEH, 50 μM (%): compound at 50 μM
T1 sequence (P34913 1-555): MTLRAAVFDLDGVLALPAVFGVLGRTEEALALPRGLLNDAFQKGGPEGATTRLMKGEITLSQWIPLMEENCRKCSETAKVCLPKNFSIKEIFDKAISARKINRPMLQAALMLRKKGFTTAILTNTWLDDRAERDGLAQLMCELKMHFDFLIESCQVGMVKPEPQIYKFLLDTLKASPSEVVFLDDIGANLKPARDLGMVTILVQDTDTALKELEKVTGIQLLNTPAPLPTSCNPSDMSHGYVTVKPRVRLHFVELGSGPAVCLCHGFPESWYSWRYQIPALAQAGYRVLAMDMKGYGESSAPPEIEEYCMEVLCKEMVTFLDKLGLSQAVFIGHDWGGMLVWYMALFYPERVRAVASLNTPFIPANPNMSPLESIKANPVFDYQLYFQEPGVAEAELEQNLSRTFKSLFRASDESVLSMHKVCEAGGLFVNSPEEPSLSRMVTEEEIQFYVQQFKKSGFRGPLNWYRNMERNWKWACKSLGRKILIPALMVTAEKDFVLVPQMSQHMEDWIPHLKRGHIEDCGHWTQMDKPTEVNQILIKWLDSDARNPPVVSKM

[2] = target: T1, sEH; assay: Inhibitory kinetic analysis
[3] = PHOME 10 μM, 20 min, 37 °C, pH 7.4
[4] = read-out: Inhibition of compounds against sEH, IC50, PHOME 10 μM, 20 min, 37 °C, pH 7.4

Inhibition of compounds against sEH, 50 μM (%) [1, 3] [%]	IC50 [1, 4] [µM]	Compound	further results
18.30 ± 0.35	> 50	C[C@@H]1C[C@@H]([C@@H](O)C(C)(C)O)O[C@H]2C[C@@]3(C)C(=C12)C[C@H](O)[C@H]1[C@@]2(C)CCC(=O)C(C)(C)[C@@H]2CC[C@@]13C [Compound 14, alisol F]	
	21.4 ± 1.7	CC(=O)O[C@H]([C@@H](O)C[C@@H](C)C1=C2C[C@H](O)[C@H]3[C@@]4(C)CCC(=O)C(C)(C)[C@@H]4CC[C@]3(C)[C@@]2(C)CC1)C(C)(C)O [Compound 25, alisol A 24-acetate]	
71.6 ± 2.12	14.6 ± 1.1	C=C(C)[C@@H](O)[C@@H]1C[C@@H](C)[C@@]2(CC[C@@]3(C)C2=C[C@H](OC)[C@H]2[C@@]4(C)CCC(=O)C(C)(C)[C@@H]4CC[C@@]23C)O1 [Compound 6, alismanin F]	
		C[C@H](C[C@H](O)[C@@H](O)C(C)(C)O)C1=C2C[C@H](O)[C@H]3[C@@]4(C)CCC(=O)C(C)(C)[C@@H]4CC[C@]3(C)[C@@]2(C)CC1 [Compound 2, alisol A]	IC50 [1]: > 50 µM; inhibition at 50 µM ([1]; pH 7.4, read-out: Inhibition of compounds against sEH, 50 μM (%)): 27.3 ± 2.81%
16.27 ± 0.72	> 50	COC1CC2(C)C(=C1C(C)CC(O)C(OC(C)=O)C(C)(C)O)C(O)CC1C3(C)CCC(=O)C(C)(C)C3CCC12C (stereo not drawn) [Compound 23, 1-deoxy-12β-hydroxy-16β-methoxy alisol A 24-acetate]	
17.63 ± 0.56	> 50	25-methoxy alisol F 23-acetate [Compound 20]	
71.21 ± 1.56	5.94 ± 0.54	C=C(C)[C@@H](O)[C@@H](O)C[C@@H](C)C1=C2CC[C@H]3[C@@]4(C)CCC(=O)C(C)(C)[C@@H]4CC[C@]3(C)[C@@]2(C)CC1 [Compound 4, 11-deoxy-25-anhydro alisol E]	Inhibition type ([2]; from Lineweaver-Burk plots): mixed-type competitive; Ki ([2]; inhibition constant from slope plots): 12.6 µM
44.42 ± 1.43	> 50	CC(CC(O)C(O)C(C)(C)O)C1=C2C(O)C(O)C3C4(C)CCC(=O)C(C)(C)C4CC(O)C3(C)C2(C)CC1 (stereo not drawn) [Compound 8, 7α,12α-dihydroxyalisol A]	
	36.3 ± 4	16-oxo-11-anhydro alisol A 23,24-acetonide [Compound 11]	
	21.2 ± 0.5	C=C(C)[C@H](O)[C@@H]1C[C@@H](C)C2=C3C[C@H](O)[C@H]4[C@@]5(C)CCC(=O)C(C)(C)[C@@H]5CC[C@]4(C)[C@@]3(C)C[C@@H]2O1 [Compound 16, 25-anhydro alisol F]	
49.44 ± 1.15	> 50	COC(=O)C[C@@H](C)C1=C2[C@H](O)C[C@H]3[C@@]4(C)CCC(=O)C(C)(C)[C@@H]4CC[C@]3(C)[C@@]2(C)C[C@@H]1OC [Compound 17, alismanin E]	
	22.1 ± 1.4	C[C@@H]1C[C@@H]([C@@H](O)C(C)(C)O)O[C@H]2C[C@@]3(C)C(=C12)CC[C@H]1[C@@]2(C)CCC(=O)C(C)(C)[C@@H]2CC[C@@]13C [Compound 13, 11-deoxy alisol F]	
44.97 ± 0.95	> 50	C=C(C)[C@H](O)[C@@H](O)C[C@@H](C)C1=C2C=C[C@H]3[C@@]4(C)CCC(=O)C(C)(C)[C@@H]4CC[C@]3(C)[C@@]2(C)CC1=O [Compound 12, alismanol B]	
78.66 ± 2.19	9.57 ± 0.88	CCOC(C)(C)[C@H](O)[C@@H](O)C[C@@H](C)C1=C2C[C@H](O)[C@H]3[C@@]4(C)CCC(=O)C(C)(C)[C@@H]4CC[C@]3(C)[C@@]2(C)CC1 [Compound 15, 25-O-ethyl alisol A]	
39.33 ± 0.92	> 50	CC(=O)O[C@H]([C@@H]1C[C@@H](C)C2=C3[C@H](O)C[C@H]4[C@@]5(C)CCC(=O)C(C)(C)[C@@H]5CC[C@]4(C)[C@@]3(C)C[C@@H]2O1)C(C)(C)O [Compound 21, 11-deoxy-12β-hydroxy alisol F 24-acetate]	
	31.5 ± 1.4	25-ethoxy-16-oxo-11-anhydro alisol A [Compound 18]	
75.31 ± 2.42	7.15 ± 1.09	CC(C)[C@@H](O)C[C@@H](C)C1=C2C[C@H](O)[C@H]3[C@@]4(C)CCC(=O)C(C)(C)[C@@H]4CC[C@]3(C)[C@@]2(C)CC1 [Compound 1, Alismanin B]	
24.45 ± 1.03	> 50	CC(C)(O)C1O[C@](C)(C2=C3C[C@H](O)[C@H]4[C@@]5(C)CCC(=O)C(C)(C)[C@@H]5CC[C@]4(C)[C@@]3(C)CC2=O)CC1O (stereo partly shown) [Compound 7, alismanol O]	
	14.6 ± 1.6	C=C(C)[C@@H]1OC(C)(C)O[C@H]1C[C@@H](C)C1=C2C[C@H](O)[C@H]3[C@@]4(C)CCC(=O)C(C)(C)[C@@H]4CC[C@]3(C)[C@@]2(C)CC1 [Compound 24, alisol G (23, 24)-diol acetonide]	
	22.2 ± 1	CC1(C)O[C@@H]1[C@@H](O)C[C@](C)(O)C1=C2C[C@H](O)[C@H]3[C@@]4(C)CCC(=O)C(C)(C)[C@@H]4CC[C@]3(C)[C@@]2(C)CC1=O [Compound 19, 20-hydroxy alisol C]	
78.54 ± 1.86	14.8 ± 1.1	COC(C[C@@H](C)C1=C2C[C@H](O)[C@H]3[C@@]4(C)CCC(=O)C(C)(C)[C@@H]4CC[C@]3(C)[C@@]2(C)CC1)OC [Compound 3, alismanin D]	
17.96 ± 0.69	> 50	C[C@@H]1C[C@@H]([C@@H](O)C(C)(C)O)O[C@H]2C[C@@]3(C)C(=C12)[C@H](O)C[C@H]1[C@@]2(C)CCC(=O)C(C)(C)[C@@H]2CC[C@@]13C [Compound 22, 11-deoxy-12β-hydroxy alisol F]	
37.63 ± 0.86	> 50	alisol B 23-acetate [Compound 9]	
18.64 ± 0.45	> 50	CC(CC(O)C(=O)C(C)(C)O)C1=C2CC(O)C3C4(C)CCC(=O)C(C)(C)C4CC(O)C3(C)C2(C)CC1 (stereo not drawn) [Compound 10, 7α-hydroxy-24-oxo alisol A]	
